Assay results reported in patent US8143293B2, “Kinase inhibitors useful for the treatment of myleoprolific diseases and other proliferative diseases” (Deciphera Pharmaceuticals, LLC, priority 2007, dated 2012).
Residue numbers refer to the chain shown, from its start.

Legend:
[1] = biological target: T1, C-Met kinase (SEQ ID NO:10) (Homo sapiens, UniProt P08581); test: C-Met kinase (SEQ ID NO:10) assay, pyruvate kinase/lactate dehydrogenase coupled; settings: 0.5 h preincubation, ATP 100 μM; read-out: Biochemical IC50, c-Met Enzyme Assay
T1 construct: 956-1390, from Invitrogen, catalogue #PV3143; His6 (N-terminal leader MSYYHHHHHH... with TEV and thrombin sites) (N); purchased Invitrogen PV3143
Procedure: C-Met Kinase (SEQ ID NO:10) Assay
Activity of C-Met kinase (SEQ ID NO:10) was determined by following the production of ADP from the kinase reaction through coupling with the pyruvate kinase/lactate dehydrogenase system (e.g., Schindler, et al. Science (2000) 289, 1938-1942). In this assay, the oxidation of NADH (thus the decrease at A340 nm) was continuously monitored spectrophometrically. The reaction mixture (100 μl) contained C-Met (c-Met residues; 956-1390, from Invitrogen, catalogue #PV3143, […]), polyE4Y (1 mg/ml), MgCl2 (10 mM), pyruvate kinase (4 units), lactate dehydrogenase (0.7 units), phosphoenol pyruvate (1 mM), and NADH (0.28 mM) in 90 mM Tris buffer containing 0.25 mM DTT, 0.2% octyl-glucoside and 1% DMSO, pH 7.5. Test compounds were incubated with C-Met (SEQ ID NO:10) and other reaction reagents at 22° C. for 0.5 h before ATP (100 μM) was added to start the reaction. The absorption at 340 nm was monitored continuously for 2 hours at 30° C. on Polarstar Optima plate reader (BMG). The reaction rate was calculated using the 1.0 to 2.0 h time frame. Percent inhibition was obtained by comparison of reaction rate with that of a control (i.e. with no test compound). IC50 values were calculated from a series of percent inhibition values determined at a range of inhibitor concentrations using software routines as implemented in the GraphPad Prism software package.

[2] = biological target: T2, T315I Abl kinase (SEQ ID NO:2) (Homo sapiens, UniProt P00519, T315I); test: T315I Abl kinase (SEQ ID NO:2) assay, pyruvate kinase/lactate dehydrogenase coupled; settings: 1 h preincubation, ATP 500 μM; read-out: Biochemical IC50, Abl T315I Enzyme Assay
T2 construct: purchased deCode Genetics
T2 sequence (P00519 with tags, fused parts or gaps T315I): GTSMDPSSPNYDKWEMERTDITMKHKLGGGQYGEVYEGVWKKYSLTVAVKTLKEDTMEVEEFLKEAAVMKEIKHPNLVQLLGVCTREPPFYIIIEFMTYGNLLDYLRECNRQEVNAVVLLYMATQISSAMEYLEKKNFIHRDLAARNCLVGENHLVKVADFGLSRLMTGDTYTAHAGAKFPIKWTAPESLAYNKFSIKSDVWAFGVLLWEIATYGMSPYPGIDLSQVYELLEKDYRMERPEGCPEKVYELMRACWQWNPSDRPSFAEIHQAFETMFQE
Procedure: Abl Kinase (SEQ ID NO:2) Assay
Activity of T315I Abl kinase (SEQ ID NO:2) was determined by following the production of ADP from the kinase reaction through coupling with the pyruvate kinase/lactate dehydrogenase system (e.g., Schindler, et al. Science (2000) 289, 1938-1942). In this assay, the oxidation of NADH (thus the decrease at A340 nm) was continuously monitored spectrophometrically. The reaction mixture (100 μl) contained Abl kinase (4.4 nM, […] Abl from deCode Genetics), peptide substrate (EAIYAAPFAKKK, 0.2 mM), MgCl2 (10 mM), pyruvate kinase (4 units), lactate dehydrogenase (0.7 units), phosphoenol pyruvate (1 mM), and NADH (0.28 mM) in 90 mM Tris buffer containing 0.2% octyl-glucoside and 1% DMSO, pH 7.5. Test compounds were incubated with T315I Abl (SEQ ID NO:2) and other reaction reagents at 30° C. for 1 h before ATP (500 μM) was added to start the reaction. The absorption at 340 nm was monitored continuously for 2 hours at 30° C. on Polarstar Optima plate reader (BMG). The reaction rate was calculated using the 1.0 to 2.0 h time frame. Percent inhibition was obtained by comparison of reaction rate with that of a control (i.e. with no test compound). IC50 values were calculated from a series of percent inhibition values determined at a range of inhibitor concentrations using software routines as implemented in the GraphPad Prism software package.

[3] = biological target: T3, Abl kinase (SEQ ID NO: 1) (Homo sapiens, UniProt P00519); test: Abl kinase (SEQ ID NO:1) assay, pyruvate kinase/lactate dehydrogenase coupled; settings: 2 h preincubation, ATP 500 μM; read-out: Biochemical IC50, Abl Enzyme Assay
T3 construct: purchased deCode Genetics
T3 sequence (P00519 with tags, fused parts or gaps): T2 sequence (P00519 with tags, fused parts or gaps T315I) with I94T
Procedure: Abl Kinase (SEQ ID NO:1) Assay
Activity of Abl kinase (SEQ ID NO: 1) was determined by following the production of ADP from the kinase reaction through coupling with the pyruvate kinase/lactate dehydrogenase system (e.g., Schindler, et al. Science (2000) 289, 1938-1942). In this assay, the oxidation of NADH (thus the decrease at A340 nm) was continuously monitored spectrophometrically. The reaction mixture (100 μl) contained Abl kinase (1 nM. Abl from deCode Genetics), peptide substrate (EAIYAAPFAKKK, 0.2 mM), MgCl2 (10 mM), pyruvate kinase (4 units), lactate dehydrogenase (0.7 units), phosphoenol pyruvate (1 mM), and NADH (0.28 mM) in 90 mM Tris buffer containing 0.2% octyl-glucoside and 3.5% DMSO, pH 7.5. Test compounds were incubated with Abl (SEQ ID NO:1) and other reaction reagents at 30° C. for 2 h before ATP (500 μM) was added to start the reaction. The absorption at 340 nm was monitored continuously for 2 hours at 30° C. on Polarstar Optima plate reader (BMG). The reaction rate was calculated using the 1.0 to 2.0 h time frame. Percent inhibition was obtained by comparison of reaction rate with that of a control (i.e. with no test compound). IC50 values were calculated from a series of percent inhibition values determined at a range of inhibitor concentrations using software routines as implemented in the GraphPad Prism software package.

[4] = biological target: T4, BaF3 cells transfected with T315I p210 BCR-Abl (Homo sapiens, UniProt P00519, T315I, cells depend on it); test: Ba/F3 p210 T315I whole cell proliferation assay; format: cell-based; settings: 72 hours, Cell Titer Blue; read-out: Whole Cell Antiproliferation IC50, Ba/F3 p210 T315I whole cell proliferation assay
T4 construct: fused on or other part: P11274 (Breakpoint cluster region protein)
Procedure: (§1) BaF3 cells (parental or transfected with the following: wild type p210 BCR-Abl and T315I p210 BCR-Abl was obtained from Professor Richard Van Etten (New England Medical Center, Boston, Mass.). Briefly, cells were grown in RPMI 1640 supplemented with 10% characterized fetal bovine serum (HyClone, Logan, Utah) at 37 degrees Celsius, 5% CO2, 95% humidity. Cells were allowed to expand until reaching 80% saturation at which point they were subcultured or harvested for assay use.
(§2) A serial dilution of test compound was dispensed into a 96 well black clear bottom plate (Corning, Corning, N.Y.). For each cell line, three thousand cells were added per well in complete growth medium. Plates were incubated for 72 hours at 37 degrees Celsius, 5% CO2, 95% humidity. At the end of the incubation period Cell Titer Blue (Promega, Madison, Wis.) was added to each well and an additional 4.5 hour incubation at 37 degrees Celsius, 5% CO2, 95% humidity was performed. Plates were then read on a BMG Fluostar Optima (BMG, Durham, N.C.) using an excitation of 544 nm and an emission of 612 nm. Data was analyzed using Prism software (Graphpad, San Diego, Calif.) to calculate IC50's.

[5] = biological target: T5, BaF3 cells transfected with wild type p210 BCR-Abl (Homo sapiens, UniProt P00519); test: Ba/F3 p210 whole cell proliferation assay; format: cell-based; settings: 72 hours, Cell Titer Blue; read-out: Whole Cell Antiproliferation IC50, Ba/F3 p210 whole cell proliferation assay
T5 construct: fused on or other part: P11274 (Breakpoint cluster region protein)
Procedure: as §1, §2

T1 sequence (P08581 with tags, fused parts or gaps): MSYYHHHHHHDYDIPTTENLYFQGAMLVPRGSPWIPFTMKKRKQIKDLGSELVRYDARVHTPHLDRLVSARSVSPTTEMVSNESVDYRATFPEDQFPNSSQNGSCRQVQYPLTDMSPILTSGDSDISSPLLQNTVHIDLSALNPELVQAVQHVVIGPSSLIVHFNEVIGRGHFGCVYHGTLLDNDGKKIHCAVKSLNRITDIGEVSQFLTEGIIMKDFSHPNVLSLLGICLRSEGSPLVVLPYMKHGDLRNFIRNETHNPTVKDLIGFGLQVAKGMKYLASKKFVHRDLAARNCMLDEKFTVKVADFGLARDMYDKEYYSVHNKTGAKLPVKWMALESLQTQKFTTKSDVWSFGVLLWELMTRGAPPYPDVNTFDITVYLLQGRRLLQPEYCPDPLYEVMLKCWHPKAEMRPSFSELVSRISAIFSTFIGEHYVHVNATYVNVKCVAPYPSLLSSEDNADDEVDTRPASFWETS

Row | Compound | IC50 [1] [µM] | IC50 [2] [nM] | IC50 [3] [nM] | GI50 [4] [nM] | GI50 [5] [nM]
1 | 1-(3-cyclopentylisoxazol-5-yl)-3-(2-fluoro-4-(2-(1-methyl-1H-pyrazol-4-yl)pyridin-4-yloxy)phenyl)urea [Example 13] | < 1 | < 10000 | < 100 | < 100 | < 100
2 | Cn1cc(-c2cc(Oc3ccc(NC(=O)Nc4cc(C(C)(C)C)on4)c(F)c3)ccn2)cn1 [Example 4, 1-(5-t-butylisoxazol-3-yl)-3-(2-fluoro-4-(2-(1-methyl-1H-pyrazol-4-yl)pyridin-4-yloxy)phenyl)urea] | < 1 | < 100 | < 100 | < 100 | < 100
3 | Cn1cc(-c2cc(Oc3ccc(NC(=O)Nc4cc(C(F)(F)F)no4)c(F)c3)ccn2)cn1 [Example 7, 1-(2-fluoro-4-(2-(1-methyl-1H-pyrazol-4-yl)pyridin-4-yloxy)phenyl)-3-(3-(trifluoromethyl)isoxazol-5-yl)urea] | < 10 | < 100 | < 100 | < 1000 | < 100
4 | Cn1cc(-c2cc(Oc3ccc(NC(=O)Nc4cc(C(F)(F)F)nn4C)c(F)c3)ccn2)cn1 [Example 16, 1-(2-fluoro-4-(2-(1-methyl-1H-pyrazol-4-yl)pyridin-4-yloxy)phenyl)-3-(1-methyl-3-(trifluoromethyl)-1H-pyrazol-5-yl)urea] | < 10 | < 1000 | < 100 | < 1000 | < 100
5 | Cc1c(Oc2ccnc(-c3cnn(C)c3)c2)ccc(NC(=O)Nc2cnn(C(C)(C)C)c2)c1F [Example 17, 1-(1-tert-butyl-1H-pyrazol-4-yl)-3-(2-fluoro-3-methyl-4-(2-(1-methyl-1H-pyrazol-4-yl)pyridin-4-yloxy)phenyl)urea] | < 1 | < 100 | < 100 | < 100 | < 100
6 | Cc1c(NC(=O)Nc2ccc(Oc3ccnc(-c4cnn(C)c4)c3)cc2F)cnn1C(C)C [Example 19, 1-(2-fluoro-4-(2-(1-methyl-1H-pyrazol-4-yl)pyridin-4-yloxy)phenyl)-3-(1-isopropyl-5-methyl-1H-pyrazol-4-yl)urea] | < 10 | < 1000 | < 1000 | < 10000 | < 100
7 | Cc1nn(C(C)C)cc1NC(=O)Nc1ccc(Oc2ccnc(-c3cnn(C)c3)c2)cc1F [Example 20, 1-(2-fluoro-4-(2-(1-methyl-1H-pyrazol-4-yl)pyridin-4-yloxy)phenyl)-3-(1-isopropyl-3-methyl-1H-pyrazol-4-yl)urea] | < 10 | < 100 | < 100 | < 1000 | < 100
8 | Cn1cc(-c2cc(Oc3ccc(NC(=O)Nc4ccn(C(C)(C)C)c4)c(F)c3)ccn2)cn1 [Example 30, 1-(1-tert-butyl-1H-pyrrol-3-yl)-3-(2-fluoro-4-(2-(1-methyl-1H-pyrazol-4-yl)pyridin-4-yloxy)phenyl)urea] | < 10 | < 100 | < 100 | < 1000 | < 100
9 | tert-butyl 4-(2-tert-butyl-5-(3-(2-fluoro-4-(2-(1-methyl-1H-pyrazol-4-yl)pyridin-4-yloxy)phenyl)ureido)pyrimidin-4-yl)piperazine-1-carboxylate [Example 40] | < 100 | < 1000 | < 100 | < 1000 | < 1000
